Test results as given in PMC9404711 (Antibiotics, 2022).
In brackets after ≈: the same amount, converted by molar mass. Like-named read-outs stand apart in the source and are kept apart here. Positions of bridges follow the written chain, without caps; N, C: chain ends. Non-standard residues stand in square brackets, D forms with d. Residues, ends and D or L forms follow the SMILES beside them. *: point of attachment. X1 = CC[C@H](C)CCCCC(=O)*; Dab = NCC[C@H](N)C(=O)O; Butyryl = CCCC(=O)*

Assays:
[1] = tested on: A. baumannii (ATCC 19606); assay type: cell-based, Acinetobacter baumannii
Description: (§1) The following bacteria were grown in cation-adjusted Muller-Hinton broth at 37 °C with shaking: A. baumannii (ATCC 19606), E. coli (ATCC 25922), K. pneumoniae (ATCC 13883), P. aeruginosa (ATCC 27853), and S. aureus (ATCC 29213).
(§2) The MIC experiments were performed in triplicate, as described in Jensen et al.. Briefly, all peptide stock solutions were prepared by dissolving each peptide in Milli-Q water to obtain a concentration of 10 mg/mL. A bacterial concentration of 10^6 CFU/mL was obtained through the dilution of an overnight culture (MHB-II medium). When the overnight culture was prepared, the OD was measured using a spectrophotometer and when an OD value between 0.2 and 0.4 was obtained, the culture was diluted to OD = 0.002. The MIC determination was carried out in 96-well polypropylene microtitre plates. […] A final bacterial inoculum of 5 × 10^5 CFU/mL per well was obtained by adding 50 μL bacterial suspension to the microtiter plates. The plates were incubated at 37 °C for 18–24 h. To verify the CFU, 10 μL of bacteria suspension was transferred to 990 μL 0.9 % saline solution, from which a 10-fold dilution was carried out. Then, 100 μL of the dilution was plated on an LB plate and left for bacterial growth overnight at 37 °C. Colistin and vancomycin were used as the positive controls.

[2] = tested on: K. pneumoniae (ATCC 13883); assay type: cell-based, Klebsiella pneumoniae
Description: as §1, §2

[3] = tested on: P. aeruginosa (ATCC 27853); assay type: cell-based, Pseudomonas aeruginosa
Description: as §1, §2

[4] = tested on: E. coli (ATCC 25922); assay type: cell-based, Escherichia coli
Description: as §1, §2

[5] = tested on: S. aureus (ATCC 29213); experiment: MIC determination, broth microdilution; assay type: cell-based, Staphylococcus aureus; details: for MIC SA: S. aureus ATCC 29213, MHB-II, 37 °C, 18–24 h, triplicate
Description: as §1, §2

[6] = tested on: human erythrocytes; details: 150 μM peptide; 0.5% (v/v) red blood cell suspension in PBS, 1 h at 37 °C, absorbance 414 nm; melittin positive control, PBS negative control; three wells
Description: PBS served as the negative control and 5 μM melittin served as the positive control. All melittin solutions were prepared in Protein LoBind Eppendorf tubes to prevent the adsorption of melittin to the inner surface of the tubes.
Preparation of peptide solutions and melittin: A 5 μM melittin solution in PBS was prepared the day before the hemolysis experiment. First, 150 μL of this solution was transferred to each of the positive control wells and stored in the fume hood to coat the wells. On the day of the experiment, the melittin solution was discarded and the wells were washed with 3 × PBS. A 2.5 μM melittin solution in PBS was prepared and 75 μL was transferred to the wells. PBS (150 μL) was used as the negative control. A solution of each peptide was prepared by dissolving the peptide in 0.5 mL PBS to obtain a concentration of 300 μM. Each peptide solution (150 μL) was transferred to the wells in three wells each in row A, and the plate was diluted down.
Preparation of the red blood cell suspension: 1 mL of type O- whole blood in citrate was transferred to a cryotube. The whole blood was washed with 3 × PBS; adding 3, 3, and 4 mL of PBS, respectively. In between, the blood was centrifuged for 8 min (3000, 3000, and 4000 rpm, respectively) and the supernatant was removed after each centrifugation. A 0.5% (v/v) blood suspension was prepared by adding 40 μL of the washed blood cells to 8 mL of PBS. Then, 75 μL of the red blood cell suspension was transferred to each well and mixed gently. The plate was sealed and incubated for 1 h at 37 °C. After incubation, the plate was centrifuged at 4000 rpm for 10 min. Afterwards, 60 μL of the supernatant from each well was quickly transferred to an ELISA plate.
The absorbance was determined at 414 nm, and Equation (1) below was used to calculate the hemolytic activity of the peptides.

[7] = Hydrophobicity by analytical RP-HPLC (%B at elution); assay type: physicochemical; details: chromatographic, analytical reversed-phase HPLC, Waters Symmetry C18 5 μm 4.6 × 250 mm; A: H2O + 0.1% TFA, B: 90:10 ACN-H2O + 0.1% TFA
Description: Peptide purity was determined as described previously by analytical RP-HPLC using a Waters 717 plus Autosampler, In-line Degasser AF, 600 Controller, and 2996 Photodiode Array Detector; the column used was a Waters Symmetry C18 column (5 μm, 4.6 mm × 250 mm, Milford, MA, USA). An aqueous acetonitrile (ACN) gradient with 0.1% TFA added (mixing eluent A: H2O + 0.1% TFA and eluent B: 90:10 ACN-H2O + 0.1% TFA) was employed using milli-Q water. Preparative RP-HPLC was performed by using a Waters XSelect Peptide CSH C18 OBDTM column (5 μm, 19 mm × 250 mm, Milford, MA, USA) with the same eluents as for analytical HPLC.
*Hydrophobicity as indicated by the percentage of mobile phase B (%B) at the peak elution time on analytical

[8] = A. baumannii ATCC 19606, MHB-II, inoculum 5 × 10^5 CFU/mL, 37 °C, 18–24 h, triplicate
[9] = K. pneumoniae ATCC 13883, MHB-II, inoculum 5 × 10^5 CFU/mL, 37 °C, 18–24 h, triplicate
[10] = P. aeruginosa ATCC 27853, MHB-II, inoculum 5 × 10^5 CFU/mL, 37 °C, 18–24 h, triplicate
[11] = E. coli ATCC 25922, MHB-II, inoculum 5 × 10^5 CFU/mL, 37 °C, 18–24 h, triplicate
[12] = value in brackets, A. baumannii ATCC 19606, MHB-II, 37 °C, 18–24 h, triplicate
[13] = value in brackets, K. pneumoniae ATCC 13883, MHB-II, 37 °C, 18–24 h, triplicate
[14] = value in brackets, P. aeruginosa ATCC 27853, MHB-II, 37 °C, 18–24 h, triplicate
[15] = value in brackets, E. coli ATCC 25922, MHB-II, 37 °C, 18–24 h, triplicate

Structure (SMILES): CC[C@H](C)CCCCC(=O)N[C@@H](CCN)C(=O)N[C@H](C(=O)N[C@@H](CCN)C(=O)N[C@H]1CCNC(=O)[C@H]([C@@H](C)O)NC(=O)[C@H](CCN)NC(=O)[C@H](CCN)NC(=O)[C@H](CC(C)C)NC(=O)[C@@H](CC(C)C)NC(=O)[C@H](CCN)NC1=O)[C@@H](C)O [Colistin, reference compound] (X1-[Dab]T[Dab][Dab][Dab][dL]L[Dab][Dab]T; lactam 4-C (inferred); N-terminus assumed)
- MIC AB [1, 8]: 0.25 mg/L
- MIC AB ([1]; ATCC 19606): 0.2 µM
- MIC KP ([2]; ATCC 13883): 0.4 µM
- MIC KP [2, 9]: 0.5 mg/L
- MIC PA ([3]; ATCC 27853): 0.4 µM
- MIC PA [3, 10]: 0.5 mg/L
- MIC EC ([4]; ATCC 25922): 0.2 µM
- MIC EC [4, 11]: 0.25 mg/L

Structure (SMILES): CN[C@H](CC(C)C)C(=O)N[C@H]1C(=O)N[C@@H](CC(N)=O)C(=O)N[C@H]2C(=O)N[C@H]3C(=O)N[C@H](C(=O)N[C@H](C(=O)O)c4cc(O)cc(O)c4-c4cc3ccc4O)[C@H](O)c3ccc(c(Cl)c3)Oc3cc2cc(c3O[C@@H]2O[C@H](CO)[C@@H](O)[C@H](O)[C@H]2O[C@H]2C[C@](C)(N)[C@H](O)[C@H](C)O2)Oc2ccc(cc2Cl)[C@H]1O [Vancomycin, reference compound]
- MIC SA ([5]; inoculum 5 × 10^5 CFU/mL): 0.5 mg/L
- MIC ([5]; Staphylococcus aureus, ATCC29213, read-out: MIC SA): 0.35 µM (≈ 0.507 µg/mL)

Structure (SMILES): CCCC(=O)N[C@H](CCCCN)C(=O)N[C@H](CCCCN)C(=O)N[C@H](CC(C)C)C(=O)N[C@H](Cc1ccccc1)C(=O)N[C@H](CCCCN)C(=O)N[C@H](CCCCN)C(=O)N[C@@H](C(=O)N[C@H](CC(C)C)C(=O)N[C@H](CCCNC(=N)N)C(=O)N[C@H](Cc1ccc(O)cc1)C(=O)N[C@H](CC(C)C)C(N)=O)[C@H](C)CC [compound 1] (Butyryl-[dK][dK][dL][dF][dK][dK][dI][dL][dR][dY][dL]-NH2)
- % hemolysis of human erythrocytes [6]: 100%
- MIC AB [1, 8]: 2 mg/L
- MIC AB [1, 12]: 1.3 µM
- MIC KP [2, 9]: 4 mg/L
- MIC KP [2, 13]: 2.6 µM
- MIC PA [3, 10]: 32 mg/L
- MIC PA [3, 14]: 21.1 µM
- MIC SA ([5]; inoculum 5 × 10^5 CFU/mL): 64 mg/L
- MIC SA ([5]; value in brackets): 42.1 µM
- MIC EC [4, 11]: 2 mg/L
- MIC EC [4, 15]: 1.3 µM

Structure (SMILES): CC[C@@H](C)[C@@H](NC(=O)[C@@H](CCCCN)NC(=O)[C@@H](CCCCN)NC(=O)[C@@H](Cc1ccccc1)NC(=O)[C@@H](CC(C)C)NC(=O)[C@@H](CCCCN)NC(=O)[C@H](N)CCCCN)C(=O)N1CCCC[C@H](C(N)=O)NC(=O)[C@@H](Cc2ccc(O)cc2)NC(=O)[C@@H](CCCNC(=N)N)NC(=O)[C@@H](CC(C)C)NC(=O)C1 [compound 8]
- % hemolysis of human erythrocytes [6]: 3%
- MIC AB [1, 8]: > 64 mg/L
- MIC AB [1, 12]: > 42.6 µM
- MIC KP [2, 9]: > 64 mg/L
- MIC KP [2, 13]: > 42.6 µM
- MIC PA [3, 10]: > 64 mg/L
- MIC PA [3, 14]: > 42.6 µM
- MIC SA ([5]; inoculum 5 × 10^5 CFU/mL): > 64 mg/L
- MIC SA ([5]; value in brackets): > 42.6 µM
- MIC EC [4, 11]: > 64 mg/L
- MIC EC [4, 15]: > 42.6 µM

Structure (SMILES): CCCCCCCCCCCC(=O)N[C@H](CCCCN)C(=O)N[C@H](CCCCN)C(=O)N[C@H](CC(C)C)C(=O)N[C@H](Cc1ccccc1)C(=O)N[C@H](CCCCN)C(=O)N[C@H](CCCCN)C(=O)N[C@@H](C(=O)N[C@H](CC(C)C)C(=O)N1CCCC[C@H](C(N)=O)NC(=O)[C@@H](Cc2ccc(O)cc2)NC(=O)[C@@H](CCCNC(=N)N)NC(=O)C1)[C@H](C)CC [compound 11]
- MIC AB [1, 8]: 4 mg/L
- MIC AB [1, 12]: 2.3 µM
- MIC KP [2, 9]: 8 mg/L
- MIC KP [2, 13]: 4.6 µM
- MIC PA [3, 10]: 4 mg/L
- MIC PA [3, 14]: 2.3 µM
- MIC SA ([5]; inoculum 5 × 10^5 CFU/mL): 4 mg/L
- MIC SA ([5]; value in brackets): 2.3 µM
- %B (hydrophobicity: percentage of mobile phase B at the peak elution time) [7]: 66.2 %B
- MIC EC [4, 11]: 4 mg/L
- MIC EC [4, 15]: 2.3 µM

Structure (SMILES): CCCCCCCCCCCCCC(=O)N[C@H](CCCCN)C(=O)N[C@H](CCCCN)C(=O)N[C@H](CC(C)C)C(=O)N[C@H](Cc1ccccc1)C(=O)N[C@H](CCCCN)C(=O)N[C@H](CCCCN)C(=O)N[C@@H](C(=O)N[C@H](CC(C)C)C(=O)N1CCCC[C@H](C(N)=O)NC(=O)[C@@H](Cc2ccc(O)cc2)NC(=O)[C@@H](CCCNC(=N)N)NC(=O)C1)[C@H](C)CC [compound 12]
- MIC AB [1, 8]: 16 mg/L
- MIC AB [1, 12]: 9.3 µM
- MIC KP [2, 9]: 4 mg/L
- MIC KP [2, 13]: 2.3 µM
- MIC PA [3, 10]: 16 mg/L
- MIC PA [3, 14]: 9.3 µM
- MIC SA ([5]; inoculum 5 × 10^5 CFU/mL): 8 mg/L
- MIC SA ([5]; value in brackets): 4.6 µM
- %B (hydrophobicity: percentage of mobile phase B at the peak elution time) [7]: 70.0 %B
- MIC EC [4, 11]: 8 mg/L
- MIC EC [4, 15]: 4.6 µM

Structure (SMILES): CCCCCCCCCCCC(=O)N[C@H](CCCCN)C(=O)N[C@H](CCCCN)C(=O)N[C@H](CC(C)C)C(=O)N[C@H](Cc1ccccc1)C(=O)N[C@H](CCCCN)C(=O)N[C@H](CCCCN)C(=O)N[C@@H](C(=O)N1CCCC[C@H](C(N)=O)NC(=O)[C@@H](Cc2ccc(O)cc2)NC(=O)[C@@H](CCCNC(=N)N)NC(=O)[C@@H](CC(C)C)NC(=O)C1)[C@H](C)CC [compound 14]
- MIC AB [1, 8]: 4 mg/L
- MIC AB [1, 12]: 2.4 µM
- MIC KP [2, 9]: 16 mg/L
- MIC KP [2, 13]: 9.5 µM
- MIC PA [3, 10]: 4 mg/L
- MIC PA [3, 14]: 2.4 µM
- MIC SA ([5]; inoculum 5 × 10^5 CFU/mL): 4 mg/L
- MIC SA ([5]; value in brackets): 2.4 µM
- %B (hydrophobicity: percentage of mobile phase B at the peak elution time) [7]: 65.1 %B
- MIC EC [4, 11]: 4 mg/L
- MIC EC [4, 15]: 2.4 µM

Structure (SMILES): CCCCCCCCCCCC(=O)N[C@H](CCCCN)C(=O)N[C@H](CCCCN)C(=O)N[C@H](CC(C)C)C(=O)N[C@H](Cc1ccccc1)C(=O)N[C@H](CCCCN)C(=O)N[C@H](CCCCN)C(=O)N1CCCC[C@H](C(N)=O)NC(=O)[C@@H](Cc2ccc(O)cc2)NC(=O)[C@@H](CCCNC(=N)N)NC(=O)[C@@H](CC(C)C)NC(=O)[C@@H]([C@H](C)CC)NC(=O)C1 [compound 17]
- MIC AB [1, 8]: 4 mg/L
- MIC AB [1, 12]: 2.4 µM
- MIC PA [3, 10]: 8 mg/L
- MIC PA [3, 14]: 4.8 µM
- MIC SA ([5]; inoculum 5 × 10^5 CFU/mL): 4 mg/L
- MIC SA ([5]; value in brackets): 2.4 µM
- %B (hydrophobicity: percentage of mobile phase B at the peak elution time) [7]: 65.5 %B
- MIC EC [4, 11]: 8 mg/L
- MIC EC [4, 15]: 4.7 µM

Structure (SMILES): CCCCCCCCCCCCCC(=O)N[C@H](CCCCN)C(=O)N[C@H](CCCCN)C(=O)N[C@H](CC(C)C)C(=O)N[C@H](Cc1ccccc1)C(=O)N[C@H](CCCCN)C(=O)N[C@H](CCCCN)C(=O)N1CCCC[C@H](C(N)=O)NC(=O)[C@@H](Cc2ccc(O)cc2)NC(=O)[C@@H](CCCNC(=N)N)NC(=O)[C@@H](CC(C)C)NC(=O)[C@@H]([C@H](C)CC)NC(=O)C1 [compound 18]
- MIC AB [1, 8]: 4 mg/L
- MIC AB [1, 12]: 2.3 µM
- MIC KP [2, 9]: 32 mg/L
- MIC KP [2, 13]: 18.7 µM
- MIC PA [3, 10]: 16 mg/L
- MIC PA [3, 14]: 9.3 µM
- MIC SA ([5]; inoculum 5 × 10^5 CFU/mL): 4 mg/L
- MIC SA ([5]; value in brackets): 2.3 µM
- %B (hydrophobicity: percentage of mobile phase B at the peak elution time) [7]: 78.5 %B
- MIC EC [4, 11]: 8 mg/L
- MIC EC [4, 15]: 4.6 µM
